“And” between values parts separate entries of the source, which are not always exact repeats. Identical values can stand only once. Inconclusive results and toxic doses are left out. Rule for the calls: active = survival T/C of 150% or more; inactive = T/C below 125% in these data.
Tested on: CD2F1 mice, L1210 leukemia ip, survival T/C
Test: NCI In Vivo Anticancer Drug Screen. Data for tumor model L1210 Leukemia (intraperitoneal) in CD2F1 (CDF1) mice
Details: higher = longer survival
Summary of the method: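 Antitumor effect is scored in animals hosting a serially transplanted tumor. Values compare compound-dosed animals against vehicle-only controls as a simple quotient.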

[1] = endpoint: mean survival time, dose: 100.0 mg/kg/injection, schedule: Q04DX003 (ip), vehicle: saline with Tween-80
[2] = endpoint: mean survival time, dose: 200.0 mg/kg/injection, schedule: Q04DX003 (ip), vehicle: saline with Tween-80
[3] = endpoint: mean survival time, dose: 400.0 mg/kg/injection, schedule: Q04DX003 (ip), vehicle: saline with Tween-80
[4] = endpoint: mean survival time, dose: 100.0 mg/kg/injection, schedule: Q04DX002 (ip), vehicle: saline with Tween-80
[5] = endpoint: mean survival time, dose: 200.0 mg/kg/injection, schedule: Q04DX002 (ip), vehicle: saline with Tween-80
[6] = endpoint: mean survival time, dose: 100.0 mg/kg/injection, schedule: Q01DX001 (ip), vehicle: other
[7] = endpoint: mean survival time, dose: 100.0 mg/kg/injection, schedule: Q01DX001 (ip), vehicle: saline with Tween-80
[8] = endpoint: mean survival time, dose: 200.0 mg/kg/injection, schedule: Q01DX001 (ip), vehicle: other
[9] = endpoint: mean survival time, dose: 200.0 mg/kg/injection, schedule: Q01DX001 (ip), vehicle: saline with Tween-80
[10] = endpoint: mean survival time, dose: 400.0 mg/kg/injection, schedule: Q01DX001 (ip), vehicle: other
[11] = endpoint: mean survival time, dose: 400.0 mg/kg/injection, schedule: Q01DX001 (ip), vehicle: saline with Tween-80
[12] = endpoint: mean survival time, dose: 100.0 mg/kg/injection, schedule: Q01DX009 (ip), vehicle: saline with Tween-80
[13] = endpoint: mean survival time, dose: 200.0 mg/kg/injection, schedule: Q01DX009 (ip), vehicle: saline with Tween-80
[14] = endpoint: mean survival time, dose: 400.0 mg/kg/injection, schedule: Q01DX009 (ip), vehicle: saline with Tween-80

Measured: T/C

CN(Cc1ccc2nc(N)[nH]c(=O)c2n1)c1ccc(C(=O)NC(CCC(=O)O)C(=O)O)cc1 (stereo not given)
inactive: endpoint: mean survival time, dose: 0.5 mg/kg/injection, schedule: Q01DX005 (ip), vehicle: sodium bicarbonate 98 % of control and 101 % of control | endpoint: mean survival time, dose: 1.0 mg/kg/injection, schedule: Q01DX005 (ip), vehicle: sodium bicarbonate 101 % of control and 104 % of control | endpoint: mean survival time, dose: 2.0 mg/kg/injection, schedule: Q01DX005 (ip), vehicle: sodium bicarbonate 101 % of control and 102 % of control | endpoint: mean survival time, dose: 4.0 mg/kg/injection, schedule: Q01DX005 (ip), vehicle: sodium bicarbonate 98 % of control and 102 % of control | endpoint: mean survival time, dose: 8.0 mg/kg/injection, schedule: Q01DX005 (ip), vehicle: sodium bicarbonate 104 % of control and 107 % of control | endpoint: mean survival time, dose: 16.0 mg/kg/injection, schedule: Q01DX005 (ip), vehicle: sodium bicarbonate 102 % of control and 107 % of control

Brc1cccc2c1CCCC2
inactive: [1] 97 % of control | [2] 95 % of control | [3] 103 % of control

CCC(=O)OCc1cc2ccccc2c(-c2c(O)c(CN3CCOCC3)cc3ccccc23)c1O
inactive: [4] 95 % of control | [5] 91 % of control | endpoint: mean survival time, dose: 400.0 mg/kg/injection, schedule: Q04DX002 (ip), vehicle: saline with Tween-80 91 % of control

COc1ccc(OCCCn2cc(-c3ccc(Cl)c(Cl)c3)c(N)nc2=O)cc1
inactive: [1] 97 % of control | [2] 92 % of control | [3] 94 % of control

CCC1(C)C=CCC(C)(C)S1 (stereo not given)
inactive: [4] 102 % of control | [5] 91 % of control

CCCCCCCCOC(=O)C12Oc3ccc(-c4ccc5c(c4O)C(O)=C4C(=O)CC(C)C(O)C4(C(=O)OCCCCCCCC)O5)c(O)c3C(O)=C1C(=O)CC(C)C2O (stereo not given)
inactive: endpoint: mean survival time, dose: 2.5 mg/kg/injection, schedule: Q01DX009 (ip), vehicle: saline with Tween-80 97 % of control | endpoint: mean survival time, dose: 5.0 mg/kg/injection, schedule: Q01DX009 (ip), vehicle: saline with Tween-80 97 % of control | endpoint: mean survival time, dose: 10.0 mg/kg/injection, schedule: Q01DX009 (ip), vehicle: saline with Tween-80 97 % of control

Cn1c(=O)c2c(ncn2C)n(C)c1=O
inactive: endpoint: mean survival time, dose: 128.0 mg/kg/injection, schedule: Q11HX001 (sc), vehicle: water 94 % of control and 103 % of control | endpoint: mean survival time, dose: 160.0 mg/kg/injection, schedule: Q11HX001 (sc), vehicle: water 95 % of control and 98 % of control | endpoint: mean survival time, dose: 200.0 mg/kg/injection, schedule: Q11HX001 (sc), vehicle: water 96 % of control and 98 % of control | endpoint: mean survival time, dose: 250.0 mg/kg/injection, schedule: Q11HX001 (sc), vehicle: water 96 % of control and 98 % of control | endpoint: median survival time, dose: 150.0 mg/kg/injection, schedule: Q01DX001 (ip), vehicle: water 103 % of control | endpoint: median survival time, dose: 150.0 mg/kg/injection, schedule: Q01DX001 (sc), vehicle: water 102 % of control and 109 % of control | endpoint: median survival time, dose: 200.0 mg/kg/injection, schedule: Q01DX001 (ip), vehicle: water 104 % of control | endpoint: median survival time, dose: 200.0 mg/kg/injection, schedule: Q01DX001 (sc), vehicle: water 104 % of control and 108 % of control | endpoint: median survival time, dose: 250.0 mg/kg/injection, schedule: Q01DX001 (sc), vehicle: water 95 % of control and 107 % of control

CC(C)[S-].CC(C)[S-].[Pt+2].c1ccc([PH+](c2ccccc2)c2ccccc2)cc1.c1ccc([PH+](c2ccccc2)c2ccccc2)cc1
inactive: endpoint: mean survival time, dose: 3.13 mg/kg/injection, schedule: Q04DX003 (sc), vehicle: distilled water + Tween-80 96 % of control | endpoint: mean survival time, dose: 6.25 mg/kg/injection, schedule: Q04DX003 (sc), vehicle: distilled water + Tween-80 100 % of control | endpoint: mean survival time, dose: 12.5 mg/kg/injection, schedule: Q04DX003 (sc), vehicle: distilled water + Tween-80 92 % of control | endpoint: mean survival time, dose: 50.0 mg/kg/injection, schedule: Q04DX003 (sc), vehicle: distilled water + Tween-80 87 % of control | endpoint: mean survival time, dose: 200.0 mg/kg/injection, schedule: Q04DX003 (sc), vehicle: distilled water + Tween-80 89 % of control

c1ccc(C2=NNC(c3ccccc3)=NN2)cc1
inactive: [6] 105 % of control | [7] 101 % of control | [8] 94 % of control | [9] 97 % of control | [10] 103 % of control | [11] 103 % of control

CC(=O)OCC1(C)NC(=O)c2ccccc2O1 (stereo not given)
inactive: endpoint: mean survival time, dose: 12.5 mg/kg/injection, schedule: Q01DX009 (ip), vehicle: saline with Tween-80 93 % of control and 112 % of control | endpoint: mean survival time, dose: 25.0 mg/kg/injection, schedule: Q01DX009 (ip), vehicle: saline with Tween-80 93 % of control and 101 % of control | endpoint: mean survival time, dose: 50.0 mg/kg/injection, schedule: Q01DX009 (ip), vehicle: saline with Tween-80 98 % of control and 103 % of control | [12] 118 % of control and 100 % of control | [13] 95 % of control and 106 % of control | [14] 115 % of control

CC(C)=NNC(=O)CC(=O)NN=C(C)C
inactive: endpoint: mean survival time, dose: 100.0 mg/kg/injection, schedule: Q01DX009 (ip), vehicle: saline sonified 100 % of control | endpoint: mean survival time, dose: 180.0 mg/kg/injection, schedule: Q01DX009 (ip), vehicle: saline with Tween-80 100 % of control | endpoint: mean survival time, dose: 200.0 mg/kg/injection, schedule: Q01DX009 (ip), vehicle: saline sonified 102 % of control | endpoint: mean survival time, dose: 266.0 mg/kg/injection, schedule: Q01DX009 (ip), vehicle: saline with Tween-80 100 % of control | [14] 110 % of control | endpoint: mean survival time, dose: 600.0 mg/kg/injection, schedule: Q01DX009 (ip), vehicle: saline with Tween-80 122 % of control

C=C1C(=O)OC2CC(C)C3C4OC4C(O)C3(C)C(O)C12 (stereo not given)
inactive: endpoint: median survival time, dose: 3.12 mg/kg/injection, schedule: Q01DX009 (ip), vehicle: saline 97 % of control | endpoint: median survival time, dose: 6.25 mg/kg/injection, schedule: Q01DX009 (ip), vehicle: saline 113 % of control | endpoint: median survival time, dose: 12.5 mg/kg/injection, schedule: Q01DX009 (ip), vehicle: saline 101 % of control | endpoint: median survival time, dose: 25.0 mg/kg/injection, schedule: Q01DX009 (ip), vehicle: saline 107 % of control | endpoint: median survival time, dose: 50.0 mg/kg/injection, schedule: Q01DX009 (ip), vehicle: saline 109 % of control | endpoint: median survival time, dose: 100.0 mg/kg/injection, schedule: Q01DX009 (ip), vehicle: saline 124 % of control

COc1ccc(NC(=O)Oc2ccc(Cl)c(C)c2)cc1
inactive: [12] 89 % of control | [14] 92 % of control

[CH3][Sb]([CH3])([CH3])([O]C(=O)CC#N)[O]C(=O)CC#N
inactive: [1] 92 % of control | [2] 92 % of control | [3] 97 % of control

SCc1ccccc1
inactive: [7] 110 % of control | [9] 98 % of control | [11] 105 % of control

COC(=O)C#CBr
inactive: endpoint: mean survival time, dose: 6.25 mg/kg/injection, schedule: Q04DX003 (ip), vehicle: other 103 % of control | endpoint: mean survival time, dose: 12.5 mg/kg/injection, schedule: Q04DX003 (ip), vehicle: other 96 % of control

CCCCO.[Ti]
inactive: [12] 103 % of control | [13] 97 % of control | [14] 104 % of control

COc1cc2c(cc1OC)C(Cc1ccc(NC(=O)c3ccc(C(=O)Nc4ccc(CC5c6cc(OC)c(OC)cc6CCN5C)cc4)cc3)cc1)N(C)CC2 (stereo not given)
inactive: [6] 107 % of control | [8] 101 % of control | [10] 103 % of control

CC(C)(C)CC(C)(C)c1ccc(OCCOC(=O)c2ccccc2C(=O)O)cc1
inactive: endpoint: mean survival time, dose: 100.0 mg/kg/injection, schedule: Q01DX001 (ip), vehicle: Klucel (hydroxypropylcellulose) (HPC) 90 % of control
